Results as given in patent US6706663B2, “Herbicidal 3-heterocyclic substituted benzisothiazole and benzisoxazole compounds” (Wyeth, priority 2000, dated 2004).

Tests used:
[1] = test system: GALAP (Galium aparine); test: Postemergence herbicidal evaluation; assay type: in vivo
How it was run: (§1)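 Visual 0–9 injury scores versus control plants, covering stand, vigour, malformation, size, chlorosis and general appearance, taken four to five weeks post-spray and averaged over replicate tests. Plants were sprayed at roughly two weeks old and held on greenhouse benches.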

[2] = test system: ZEAMX (Corn, Field); test: Preemergence herbicidal evaluation; assay type: in vivo, Zea mays, L.; conditions: rated 4-5 weeks after treatment
[3] = test system: CYPSE (Cyperus serotinus); test: Flooded paddy, preemergence weed control; assay type: in vivo, Rottb.; conditions: rated 3-4 weeks after treatment, 0-9 rating scale
How it was run: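 Herbicidal effect was scored visually on a 0–9 scale against an untreated control 3–4 weeks after treatment. Compounds were applied preemergence as 50/50 v/v aqueous/acetone mixtures into flood water (1.5–3 cm deep over silt loam), at roughly 0.0080 to 0.1250 kg/ha active ingredient.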

[4] = test system: MOOVA (Monochoria vaginalis); test: Flooded paddy, preemergence weed control; assay type: in vivo, Presl.; conditions: rated 3-4 weeks after treatment, 0-9 rating scale
How it was run: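 Visual 0–9 ratings versus controls scored stand, vigor, malformation, size, chlorosis and overall appearance. Plants grew from seeds or propagating organs sown 0.5 cm deep in silt loam, with water held 1.5–3 cm above the soil for the whole test under greenhouse care.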

[5] = test system: GALAP (Galium aparine); test: Preemergence herbicidal evaluation; assay type: in vivo; conditions: rated 4-5 weeks after treatment
How it was run: (§2)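 Steps: mix seeds with potting soil; plant on ~1 inch soil per cup; spray compound in aqueous acetone; hold on greenhouse benches with routine watering; rate 0–9 visually against control at 4–5 weeks.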

[6] = test system: AMBEL (Ambrosia artemisifolia); test: Preemergence herbicidal evaluation; assay type: in vivo, L.; conditions: rated 4-5 weeks after treatment
How it was run: as §2

[7] = test system: CHEAL (Chenopodium album); test: Preemergence herbicidal evaluation; assay type: in vivo, L.; conditions: rated 4-5 weeks after treatment
How it was run: as §2

[8] = test system: CASOB (Cassia obtusifolia); test: Preemergence herbicidal evaluation; assay type: in vivo, L.; conditions: rated 4-5 weeks after treatment
How it was run: as §2

[9] = test system: ORYSAT (Rice, Tebonnet); test: Flooded paddy, post-transplant rice tolerance; assay type: in vivo, Oryza sativa, (L.) Tebonnet; conditions: flooded paddy, post-transplant rice, rated 3-4 weeks after treatment, 0-9 rating scale
How it was run: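 Steps: transplant two ten-day-old seedlings into silt loam; flood to 1.5-3 cm above soil; apply herbicide post-transplant; maintain water on greenhouse benches; rate stand, vigor, malformation, size and chlorosis on a 0-9 visual scale versus control.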

[10] = test system: TRZAWR (Wheat, Winter, cv Riband); test: Postemergence herbicidal evaluation; assay type: in vivo, Triticum aestivum
How it was run: as §1

[11] = test system: SETVI (Setaria viridis); test: Preemergence herbicidal evaluation; assay type: in vivo, (L.) Beau; conditions: rated 4-5 weeks after treatment
How it was run: as §2

[12] = test system: ECHCG (Echinochloa crus-galli); test: Preemergence herbicidal evaluation; assay type: in vivo, (L.) Beau; conditions: rated 4-5 weeks after treatment
How it was run: as §2

[13] = test system: IPOHE (Ipomoea hederacea); test: Postemergence herbicidal evaluation; assay type: in vivo, (L.) Jacq.
How it was run: as §1

[14] = test system: SETVI (Setaria viridis); test: Postemergence herbicidal evaluation; assay type: in vivo, (L.) Beau
How it was run: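 Seedlings grown about two weeks were sprayed with compound in 50/50 acetone/water containing 0.5% TWEEN 20, at about 0.0040 to 1.000 kg/ha via nozzle at 40 psi. Plants were kept under greenhouse conditions and visually rated on a 0-9 scale versus control four to five weeks after treatment; replicate tests averaged.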

[15] = test system: ABUTH (Abutilon theophrasti); test: Preemergence herbicidal evaluation; assay type: in vivo, Medic.; conditions: rated 4-5 weeks after treatment
[16] = test system: ABUTH (Abutilon theophrasti); test: Postemergence herbicidal evaluation; assay type: in vivo, Medic.
How it was run: as §1

[17] = test system: GLXMAW (Soybean, Williams); test: Postemergence herbicidal evaluation; assay type: in vivo, Glycine max, (L.) Merr. cv Williams
How it was run: as §1

C#CCOC(=O)COc1ccsc1-c1nsc2ccc(-n3c(=O)cc(C(F)(F)F)n(C)c3=O)cc12 [Compound 39, 2-propynyl [[2-[5-[3,6-dihydro-3-methyl-2,6-dioxo-4-(trifluoromethyl)-1(2H)-pyrimidinyl]-1,2-benzisothiazol-3-yl]-3-thienyl]oxy]acetate]
Postemergence herbicidal rating, GALAP ([1]; rate 0.0320 kg/ha): 0.0
Postemergence herbicidal rating, GALAP ([1]; rate 0.0620 kg/ha): 1.0
Preemergence herbicidal rating ZEAMX ([2]; Rate 0.0620 kg/ha): 0.0
ZEAMX preemergence herbicidal rating ([2]; Rate 0.1250 kg/ha): 0.0
ZEAMX preemergence herbicidal rating ([2]; Rate 0.2500 kg/ha): 1.0
herbicidal rating, CYPSE ([3]; rate 0.0320 kg/ha): 0.0
herbicidal rating, CYPSE ([3]; rate 0.1250 kg/ha): 0.0
herbicidal rating, MOOVA ([4]; rate 0.0320 kg/ha): 9.0
herbicidal rating, MOOVA ([4]; rate 0.1250 kg/ha): 9.0
Preemergence herbicidal rating GALAP ([5]; Rate 0.0620 kg/ha): 0.0
GALAP preemergence herbicidal rating ([5]; Rate 0.1250 kg/ha): 0.0
GALAP preemergence herbicidal rating ([5]; Rate 0.2500 kg/ha): 0.0
Preemergence herbicidal rating AMBEL ([6]; Rate 0.0620 kg/ha): 0.0
AMBEL preemergence herbicidal rating ([6]; Rate 0.1250 kg/ha): 0.0
AMBEL preemergence herbicidal rating ([6]; Rate 0.2500 kg/ha): 0.0
Preemergence herbicidal rating CHEAL ([7]; Rate 0.0620 kg/ha): 5.0
CHEAL preemergence herbicidal rating ([7]; Rate 0.1250 kg/ha): 9.0
CHEAL preemergence herbicidal rating ([7]; Rate 0.2500 kg/ha): 9.0
CASOB preemergence herbicidal rating ([8]; Rate 0.1250 kg/ha): 0.0
CASOB preemergence herbicidal rating ([8]; Rate 0.2500 kg/ha): 0.0
herbicidal rating, ORYSAT (rice tolerance) ([9]; rate 0.0320 kg/ha): 0.0
herbicidal rating, ORYSAT (rice tolerance) ([9]; rate 0.1250 kg/ha): 4.0
Postemergence herbicidal rating, TRZAWR ([10]; rate 0.0320 kg/ha): 1.5
Postemergence herbicidal rating, TRZAWR ([10]; rate 0.0620 kg/ha): 2.0
Preemergence herbicidal rating SETVI ([11]; Rate 0.0620 kg/ha): 0.0
SETVI preemergence herbicidal rating ([11]; Rate 0.1250 kg/ha): 1.0
SETVI preemergence herbicidal rating ([11]; Rate 0.2500 kg/ha): 6.0
Preemergence herbicidal rating ECHCG ([12]; Rate 0.0620 kg/ha): 0.0
ECHCG preemergence herbicidal rating ([12]; Rate 0.1250 kg/ha): 0.0
ECHCG preemergence herbicidal rating ([12]; Rate 0.2500 kg/ha): 0.0
Postemergence herbicidal rating, IPOHE ([13]; rate 0.0320 kg/ha): 4.0
Postemergence herbicidal rating, IPOHE ([13]; rate 0.0620 kg/ha): 4.0
Postemergence herbicidal rating, SETVI ([14]; rate 0.0320 kg/ha): 0.0
Postemergence herbicidal rating, SETVI ([14]; rate 0.0620 kg/ha): 3.0
Preemergence herbicidal rating ABUTH ([15]; Rate 0.0620 kg/ha): 1.0
ABUTH preemergence herbicidal rating ([15]; Rate 0.1250 kg/ha): 1.0
ABUTH preemergence herbicidal rating ([15]; Rate 0.2500 kg/ha): 9.0
Postemergence herbicidal rating, ABUTH ([16]; rate 0.0320 kg/ha): 2.0
Postemergence herbicidal rating, ABUTH ([16]; rate 0.0620 kg/ha): 9.0
Postemergence herbicidal rating, GLXMAW ([17]; rate 0.0320 kg/ha): 5.0
Postemergence herbicidal rating, GLXMAW ([17]; rate 0.0620 kg/ha): 5.0

Cc1cc(C)nc(-c2nsc3ccc(-n4c(=O)cc(C(F)(F)F)n(C)c4=O)cc23)n1 [Compound 40, 3-[3-(4,6-dimethyl-2-pyrimidinyl)-1,2-benzisothiazol-5-yl]-1-methyl-6-(trifluoromethyl)uracil]
Postemergence herbicidal rating, GALAP ([1]; rate 0.0320 kg/ha): 2.0
Postemergence herbicidal rating, GALAP ([1]; rate 0.0620 kg/ha): 2.0
Preemergence herbicidal rating ZEAMX ([2]; Rate 0.0620 kg/ha): 4.0
Preemergence herbicidal rating ZEAMX ([2]; Rate 0.1250 kg/ha): 8.0
Preemergence herbicidal rating ZEAMX ([2]; Rate 0.2500 kg/ha): 9.0
herbicidal rating, CYPSE ([3]; rate 0.0320 kg/ha): 0.0
herbicidal rating, CYPSE ([3]; rate 0.1250 kg/ha): 0.0
herbicidal rating, MOOVA ([4]; rate 0.0320 kg/ha): 7.0
herbicidal rating, MOOVA ([4]; rate 0.1250 kg/ha): 9.0
Preemergence herbicidal rating GALAP ([5]; Rate 0.0620 kg/ha): 0.0
Preemergence herbicidal rating GALAP ([5]; Rate 0.1250 kg/ha): 0.0
Preemergence herbicidal rating GALAP ([5]; Rate 0.2500 kg/ha): 8.0
Preemergence herbicidal rating AMBEL ([6]; Rate 0.0620 kg/ha): 3.0
Preemergence herbicidal rating AMBEL ([6]; Rate 0.1250 kg/ha): 5.0
Preemergence herbicidal rating AMBEL ([6]; Rate 0.2500 kg/ha): 9.0
Preemergence herbicidal rating CHEAL ([7]; Rate 0.0620 kg/ha): 9.0
Preemergence herbicidal rating CHEAL ([7]; Rate 0.1250 kg/ha): 9.0
Preemergence herbicidal rating CHEAL ([7]; Rate 0.2500 kg/ha): 9.0
Preemergence herbicidal rating CASOB ([8]; Rate 0.0620 kg/ha): 1.0
Preemergence herbicidal rating CASOB ([8]; Rate 0.1250 kg/ha): 2.0
Preemergence herbicidal rating CASOB ([8]; Rate 0.2500 kg/ha): 5.0
herbicidal rating, ORYSAT (rice tolerance) ([9]; rate 0.0320 kg/ha): 5.0
herbicidal rating, ORYSAT (rice tolerance) ([9]; rate 0.1250 kg/ha): 7.0
Postemergence herbicidal rating, TRZAWR ([10]; rate 0.0320 kg/ha): 3.5
Postemergence herbicidal rating, TRZAWR ([10]; rate 0.0620 kg/ha): 4.0
Preemergence herbicidal rating SETVI ([11]; Rate 0.0620 kg/ha): 3.0
Preemergence herbicidal rating SETVI ([11]; Rate 0.1250 kg/ha): 9.0
Preemergence herbicidal rating SETVI ([11]; Rate 0.2500 kg/ha): 9.0
Preemergence herbicidal rating ECHCG ([12]; Rate 0.0620 kg/ha): 3.0
Preemergence herbicidal rating ECHCG ([12]; Rate 0.1250 kg/ha): 7.0
Preemergence herbicidal rating ECHCG ([12]; Rate 0.2500 kg/ha): 8.0
Postemergence herbicidal rating, IPOHE ([13]; rate 0.0320 kg/ha): 9.0
Postemergence herbicidal rating, IPOHE ([13]; rate 0.0620 kg/ha): 9.0
Postemergence herbicidal rating, SETVI ([14]; rate 0.0320 kg/ha): 3.0
Postemergence herbicidal rating, SETVI ([14]; rate 0.0620 kg/ha): 9.0
Preemergence herbicidal rating ABUTH ([15]; Rate 0.0620 kg/ha): 9.0
Preemergence herbicidal rating ABUTH ([15]; Rate 0.1250 kg/ha): 9.0
Preemergence herbicidal rating ABUTH ([15]; Rate 0.2500 kg/ha): 9.0
Postemergence herbicidal rating, ABUTH ([16]; rate 0.0320 kg/ha): 9.0
Postemergence herbicidal rating, ABUTH ([16]; rate 0.0620 kg/ha): 9.0
Postemergence herbicidal rating, GLXMAW ([17]; rate 0.0320 kg/ha): 7.0
Postemergence herbicidal rating, GLXMAW ([17]; rate 0.0620 kg/ha): 8.0
